According to patent US9617602B2, “Methods and compositions for determining resistance to androgen receptor therapy” (Aragon Pharmaceuticals, Inc., priority 2012, dated 2017):
Where a chain is given by its changes, count along the chain named.

How the values were obtained:
wild-type VP16-AR = wild-type VP16-AR (Homo sapiens, UniProt P10275)
Description: (§1) AR point mutations were generated in VP16-AR using the QuickChange II Site-Directed Mutagenesis Kit (Agilent Technologies, Santa Clara, Calif.) according to the manufacturer's protocol.
(§2) Transcription assays were performed essentially as described above. […] Luciferase activity was measured as described above.

F876L VP16-AR = F876L VP16-AR (Homo sapiens, UniProt P10275, DEL79-80/DUP473-473/F877L)
Description: as §1, §2

wild-type AR = biological target: T1, wild-type AR (Homo sapiens, UniProt P10275, DEL79-80/DUP473-473)
T1 sequence (P10275 with tags, fused parts or gaps DEL79-80/DUP473-473): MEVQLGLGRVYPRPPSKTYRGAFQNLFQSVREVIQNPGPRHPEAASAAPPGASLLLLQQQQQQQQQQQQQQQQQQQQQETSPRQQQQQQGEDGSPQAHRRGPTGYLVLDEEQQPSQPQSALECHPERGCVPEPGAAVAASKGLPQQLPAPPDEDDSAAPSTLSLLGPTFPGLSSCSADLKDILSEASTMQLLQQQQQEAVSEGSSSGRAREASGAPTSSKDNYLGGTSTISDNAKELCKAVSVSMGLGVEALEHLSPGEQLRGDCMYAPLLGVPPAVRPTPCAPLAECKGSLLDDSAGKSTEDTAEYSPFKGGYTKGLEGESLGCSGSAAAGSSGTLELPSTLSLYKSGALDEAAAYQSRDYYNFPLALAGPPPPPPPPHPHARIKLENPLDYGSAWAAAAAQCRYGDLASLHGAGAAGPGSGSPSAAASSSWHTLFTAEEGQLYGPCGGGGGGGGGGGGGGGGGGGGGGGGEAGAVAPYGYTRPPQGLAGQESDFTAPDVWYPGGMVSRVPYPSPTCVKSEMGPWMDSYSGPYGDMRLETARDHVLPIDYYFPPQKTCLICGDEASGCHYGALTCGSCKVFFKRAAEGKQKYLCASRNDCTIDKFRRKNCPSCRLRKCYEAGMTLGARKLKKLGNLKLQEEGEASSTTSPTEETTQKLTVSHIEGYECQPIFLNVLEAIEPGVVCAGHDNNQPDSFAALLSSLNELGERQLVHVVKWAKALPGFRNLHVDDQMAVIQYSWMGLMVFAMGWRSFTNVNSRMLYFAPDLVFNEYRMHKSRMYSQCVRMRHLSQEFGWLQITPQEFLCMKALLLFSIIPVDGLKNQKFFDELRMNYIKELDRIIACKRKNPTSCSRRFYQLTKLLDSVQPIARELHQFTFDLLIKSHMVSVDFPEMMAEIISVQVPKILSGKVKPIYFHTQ
Description: (§3) Transcriptional reporter assays were performed by seeding 100 μL of HEPG2 cells at a density of 250,000 cells/mL into 96-well cell culture plates in MEM supplemented with 10% charcoal stripped serum and allowed to attach overnight at 37° C.
(§4) Cells were transiently transfected using Lipofectin® (Life Technologies) according to the manufacturer's protocol.
(§5) Following 48 hour incubation the medium was removed and the cells were lysed in 40 μL of lysis buffer (25 mM Tris Phosphate, 2 mM CDTA, 10% Glycerol, 0.5% Triton X-100, 2 mM DTT).
(§6) The AR transcriptional reporter assays were performed essentially as described above with minor modifications. Triplicate transfections were performed using 50 ng pCDNA3-AR or pCDNA3-AR mutant, 65 ng 4×ARE-Luciferase, 20 ng pRL (Promega), and 25 ng pCMX.

F876L AR = biological target: T2, F876L AR (Homo sapiens, UniProt P10275, DEL79-80/DUP473-473/F877L)
T2 sequence (P10275 with tags, fused parts or gaps DEL79-80/DUP473-473/F877L): T1 sequence (P10275 with tags, fused parts or gaps DEL79-80/DUP473-473) with F876L
Description: as §3, §4, §5, §6

CC(C)(O)C(=O)Nc1ccc([N+](=O)[O-])c(C(F)(F)F)c1 [Hydroxyflutamide, hydroxyflutamide]
AR-VP16 WT Emax (wild-type VP16-AR): 42.28 ± 4.44 percent maximal R1881 response
AR-VP16 F876L Emax (F876L VP16-AR): 5.36 ± 5.35 percent maximal R1881 response
4X ARE Reporter Assay WT Emax (wild-type AR): 28.9 ± 5.0 percent maximal R1881 response
4X ARE Reporter Assay F876L Emax (F876L AR): 0.8 ± 0.2 percent maximal R1881 response
